Patent US20250250264A1, “KIF18A INHIBITOR AND USE THEREOF” (Wuhan Humanwell Innovative Drug Research and Development …, priority 2022, published 2025)

Legend:
NIH:OVCAR-3 cells = assay: Assay on inhibition of OVCAR3 tumor cell proliferation (CellTiter-Glo); assay type: cell-based; conditions: Homo sapiens, OVCAR-3, 72 h, 3 days of drug treatment, read-out: IC50 (μM), inhibitory effects of compounds on tumor cell proliferation
Method: NIH:OVCAR-3 cells (ATCC, Cat No. HTB-161, purchased from Co-Bier) were seeded into a T75 culture flask and cultured in an RPMI 1640 medium containing 20% FBS for 3 days in preparation for subsequent culturing and seeding into a 96-well plate for the cell proliferation assay.
The OVCAR3 cells were seeded at a density of 3000 cells/100 μL/well into the 96-well cell plate, and then the plate was incubated in an incubator (37° C., 5% CO2) for 18 h. On the second day, drug treatment was started. Serially diluted test compound solutions (each drug starting at a concentration of 10 μM, diluted in DMSO, with a dilution ratio of 1:3, and nine gradient points for each drug) or DMSO (negative control) was added to the medium in the plate at 100 μL/well, and a blank group was set up with only medium, but no seeded cell strains. After the drug addition, the plate was incubated in the incubator for another 3 days (37° C., 5% CO2). On the fourth day, plate detection was performed. To each well, 100 μL of CellTiter-Glo reagent (Promega G9243) was added. The plate was shaken for 5 min and then left to stand at room temperature for 5 min. The chemical luminescence signal value of each well was determined using a microplate reader (PerkinElmer EnVision®2104). Cell proliferation inhibition rate=(1−(compound group−blank group)/(DMSO group−blank group))×100%. Then, the IC50 value of each compound was calculated using the GraphPad Prism 8 software.

[1] = molecular target: recombinant protein KIF18A (kinesin domain: aa 1-467) (Homo sapiens (Human), UniProt Q8NI77); assay: Assay on inhibition of KIF18A enzymatic activity (ADP-Glo); assay type: biochemical; conditions: KIF18A 80 nM, ATP 80 μM, 3 h at room temperature, ADP-Glo luminescence; read-out: IC50 (μM), inhibitory effects of compounds on KIF18A enzymatic activity
Sequence of recombinant protein KIF18A (kinesin domain: aa 1-467) (Q8NI77 1-467): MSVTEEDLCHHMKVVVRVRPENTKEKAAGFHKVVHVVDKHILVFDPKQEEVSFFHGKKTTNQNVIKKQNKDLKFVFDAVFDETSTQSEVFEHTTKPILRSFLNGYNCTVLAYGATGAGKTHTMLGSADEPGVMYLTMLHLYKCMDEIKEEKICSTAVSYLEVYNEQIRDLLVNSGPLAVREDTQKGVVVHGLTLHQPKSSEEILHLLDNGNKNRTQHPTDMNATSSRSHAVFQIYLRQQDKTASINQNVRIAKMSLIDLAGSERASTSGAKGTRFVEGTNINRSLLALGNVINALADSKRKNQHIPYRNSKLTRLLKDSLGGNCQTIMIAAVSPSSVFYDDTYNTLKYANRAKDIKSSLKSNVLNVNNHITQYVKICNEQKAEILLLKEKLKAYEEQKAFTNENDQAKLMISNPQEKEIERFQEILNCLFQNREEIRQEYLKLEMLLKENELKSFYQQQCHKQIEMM
Sequence of recombinant protein KIF18A (kinesin domain: aa 1-467) (P02550 whole entry partner, the tested form may be a part): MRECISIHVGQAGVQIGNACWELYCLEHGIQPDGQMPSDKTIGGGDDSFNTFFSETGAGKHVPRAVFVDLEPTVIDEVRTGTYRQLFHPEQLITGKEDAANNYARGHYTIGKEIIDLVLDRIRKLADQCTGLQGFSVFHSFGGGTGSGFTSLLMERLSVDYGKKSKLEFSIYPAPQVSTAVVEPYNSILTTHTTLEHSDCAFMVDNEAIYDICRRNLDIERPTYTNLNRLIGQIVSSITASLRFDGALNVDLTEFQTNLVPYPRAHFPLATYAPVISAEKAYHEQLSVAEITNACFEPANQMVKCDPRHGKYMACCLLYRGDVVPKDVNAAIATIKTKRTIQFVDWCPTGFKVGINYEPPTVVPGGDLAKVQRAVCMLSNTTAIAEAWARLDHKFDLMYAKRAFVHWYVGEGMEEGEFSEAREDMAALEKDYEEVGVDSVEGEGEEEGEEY
Sequence of recombinant protein KIF18A (kinesin domain: aa 1-467) (P02554 whole entry partner, the tested form may be a part): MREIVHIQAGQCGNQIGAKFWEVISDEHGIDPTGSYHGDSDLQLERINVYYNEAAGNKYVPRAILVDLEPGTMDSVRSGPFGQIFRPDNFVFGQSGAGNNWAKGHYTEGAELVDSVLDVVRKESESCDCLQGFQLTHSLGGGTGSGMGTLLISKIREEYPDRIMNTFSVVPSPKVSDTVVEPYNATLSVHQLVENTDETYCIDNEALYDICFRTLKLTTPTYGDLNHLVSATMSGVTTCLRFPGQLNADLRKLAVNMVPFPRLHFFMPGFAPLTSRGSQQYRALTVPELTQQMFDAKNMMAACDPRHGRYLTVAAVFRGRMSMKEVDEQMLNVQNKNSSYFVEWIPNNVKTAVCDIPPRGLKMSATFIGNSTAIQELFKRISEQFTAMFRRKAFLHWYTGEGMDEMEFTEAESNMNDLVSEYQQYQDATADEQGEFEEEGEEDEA
Source text: The recombinant protein KIF18A (kinesin domain: aa 1-467) used in this assay was expressed by the Bac-to-Bac baculovirus expression system from Invitrogen, and the resulting protein was purified for use in this assay (Seki, M. et al. 2003 Nucleic Acids Res.). Quantitative detection of KIF18A enzymatic activity was completed using an ADP-Glo™ kinase assay kit (Promega Inc). Related procedures strictly followed the product instructions, which are briefly described as follows:
The reaction system consisted of a test compound, the recombinant protein KIF18A (aa 1-467), ATP (Promega Inc), and an assay buffer. The test compound was prepared into a 0.5 mM stock solution using DMSO (Sigma Inc) and then serially diluted in DMSO. The assay buffer consisted of an aqueous solution of 15 mM Tris, 10 mM MgCl2 (Sigma Inc), 0.01% Pluronic F-68 (Life Technologies Inc), 1 μM paclitaxel (Cytoskeleton Inc), 30 μg/mL porcine tubulin (Cytoskeleton Inc), and 2% DMSO. The KIF18A protein (final concentration: 80 nM) and the compound at different concentrations (1 μL) were added to the prepared assay buffer (50 μL), and the mixture was incubated at room temperature for 15 min. Then, ATP (final concentration: 80 μM) was added to the reaction mixture, and the resulting mixture was incubated at room temperature for 3 h. After the reaction was completed, 5 μL of the ADP-Glo™ reagent and 2.5 μL of the reaction mixture were added to a 384-well plate (Grenier Inc). The resulting mixture was mixed homogeneously, then sealed by an aluminum foil sealing film, and incubated at room temperature in the dark for 40 min. Finally, 10 μL of the […] was added to each reaction well, and the mixture was incubated at room temperature in the dark for 40 min. After all reactions were completed, the luminescence values of the wells were read on a microplate reader (Molecular Device_SpectraMax Id5), and the inhibition ratios were calculated. The calculation formula for the inhibition rates was as follows: inhibition rate=(1−(compound group−blank group)/(negative control group−blank group))×100%. Then, based on the inhibition rates at different compound concentrations, the IC50 value of the test compound was calculated using the GraphPad Prism 8 software.

Compound | IC50 (NIH:OVCAR-3 cells) | IC50 [1]
Cc1cc(-c2nnc(-c3ccc(NS(=O)(=O)CCO)cc3N3CCC4(CC3)CC4)o2)nc(N2CCCC(F)C2)n1 (stereo not shown) [Example I-102, N-(4-(5-(2-(3-Fluoropiperidin-1-yl)-6-methylpyrimidin-4-yl)-1,3,4-oxadiazol-2-yl)-3-(6-azaspiro[2.5]octan-6-yl)phenyl)-2-hydroxyethane-1-sulfonamide] | 0.144 µM | 0.004 µM
O=c1ccc(-c2cnn(-c3ccc(NS(=O)(=O)CCO)cc3N3CCC4(CC3)CC4)c2)nn1C1CC(F)(F)C1 [Example I-121, N-(4-(4-(1-(3,3-Difluorocyclobutyl)-6-oxo-1,6-dihydropyridazin-3-yl)-1H-pyrazol-1-yl)-3-(6-azaspiro[2.5]octan-6-yl)phenyl)-2-hydroxyethane-1-sulfonamide] | 0.056 µM | 0.003 µM
Cc1cc(-c2cnn(-c3ccc(NS(=O)(=O)CCO)cc3N3CCC4(CC3)CC4)c2)nc(N2CCCC2)n1 [Example I-116, N-(4-(4-(6-Methyl-2-(pyrrolidin-1-yl)pyrimidin-4-yl)-1H-pyrazol-1-yl)-3-(6-azaspiro[2.5]octan-6-yl)phenyl)-2-hydroxyethane-1-sulfonamide] | 0.389 µM | 0.013 µM
Cc1cc(-c2nnc(-c3ccc(NS(=O)(=O)[C@H](C)CO)cc3N3CCC4(CC3)CC4)o2)nc(N2CCC(F)(F)CC2)n1 [Example I-40, (R)—N-(4-(5-(2-(4,4-Difluoropiperidin-1-yl)-6-methylpyrimidin-4-yl)-1,3,4-oxadiazol-2-yl)-3-(6-azaspiro[2.5]octan-6-yl)phenyl)-1-hydroxypropane-2-sulfonamide] | 0.076 µM | 0.011 µM
Cc1cc(-c2cnn(-c3ccc(NS(=O)(=O)CCO)cc3N3CCC(F)(F)CC3)c2)nc(N2CCC(F)(F)CC2)n1 [Example I-106, N-(3-(4,4-Difluoropiperidin-1-yl)-4-(4-(2-(4,4-difluoropiperidin-1-yl)-6-methylpyrimidin-4-yl)-1H-pyrazol-1-yl)phenyl)-2-hydroxyethane-1-sulfonamide] | 0.208 µM | 0.011 µM
Cc1cc(-c2nnc(-c3ccc(NS(=O)(=O)CCO)cc3N3CCC4(CC3)CC4)o2)nc(N2CCC(C(F)(F)F)C2)c1 (stereo not shown) [Example I-104, N-(4-(5-(4-Methyl-6-(3-(trifluoromethyl)pyrrolidin-1-yl)pyridin-2-yl)-1,3,4-oxadiazol-2-yl)-3-(6-azaspiro[2.5]octan-6-yl)phenyl)-2-hydroxyethane-1-sulfonamide] | – | 0.013 µM
Cc1cc(-c2nnc(-c3ccc(NS(=O)(=O)CCO)cc3N3CCC4(CC3)CC4)o2)nc(N2CCC(F)(F)CC2)c1 [Example I-87, N-(4-(5-(6-(4,4-Difluoropiperidin-1-yl)-4-methylpyridin-2-yl)-1,3,4-oxadiazol-2-yl)-3-(6-azaspiro [2.5]octan-6-yl)phenyl)-2-hydroxyethanesulfonamide] | 0.144 µM | 0.004 µM
Cc1cc(-c2nnc(-c3ccc(NS(=O)(=O)CCO)cc3N3CCC4(CC3)CC4)o2)cc(N2CCC(F)CC2)n1 [Example I-105, N-(4-(5-(2-(4-Fluoropiperidin-1-yl)-6-methylpyridin-4-yl)-1,3,4-oxadiazol-2-yl)-3-(6-azaspiro [2.5]octan-6-yl)phenyl)-2-hydroxyethane-sulfonamide] | 0.033 µM | 0.002 µM
Cc1cc(-c2nnc(-c3ccc(NS(=O)(=O)CCO)cc3N3CCC4(CC3)CC4)o2)nc(N2CCO[C@H](C)C2)c1 [Example I-1, (R)-2-Hydroxy-N-(4-(5-(4-methyl-6-(2-methylmorpholino)pyridin-2-yl)-1,3,4-oxadiazol-2-yl)-3-(6-azaspiro[2.5]octan-6-yl)phenyl)ethane-1-sulfonamide] | 0.045 µM | 0.033 µM
Cc1cc(-c2cn(-c3ccc(NS(=O)(=O)CCO)cc3N3CCC4(CC3)CC4)nn2)nc(N2CCC(F)(F)CC2)n1 [Example I-79, N-(4-(4-(2-(4,4-Difluoropiperidin-1-yl)-6-methylpyrimidin-4-yl)-1H-1,2,3-triazol-1-yl)-3-(6-azaspiro[2.5]octan-6-yl)phenyl)-2-hydroxyethane-1-sulfonamide] | 0.038 µM | 0.004 µM
Cc1cc(-c2nnc(-c3ccc(NS(=O)(=O)CCO)cc3N3CCC4(CC3)CC4)s2)nc(OCCC(F)(F)F)n1 [Example I-99, N-(4-(5-(6-Methyl-2-(3,3,3-trifluoropropoxy)pyrimidin-4-yl)-1,3,4-thiadiazol-2-yl)-3-(6-azaspiro[2.5]octan-6-yl)phenyl)-2-hydroxyethane-1-sulfonamide] | 0.205 µM | –
Cc1cc(-c2nnc(-c3ccc(NS(=O)(=O)CCO)cc3N3CCC4(CC3)CC4)s2)nc(N2CCC(F)(F)CC2)n1 [Example I-77, N-(4-(5-(2-(4,4-Difluoropiperidin-1-yl)-6-methylpyrimidin-4-yl)-1,3,4-thiadiazol-2-yl)-3-(6-azaspiro[2.5]octan-6-yl)phenyl)-2-hydroxyethane-1-sulfonamide] | 0.12 µM | 0.002 µM
Cc1cc(-c2nnc(-c3ccc(NS(=O)(=O)CCO)cc3N3CCC4(CC3)CC4)o2)nc(N2CCC(F)(F)CC2)n1 [Example I-2, N-(4-(5-(2-(4,4-Difluoropiperidin-1-yl)-6-methylpyrimidin-4-yl)-1,3,4-oxadiazol-2-yl)-3-(6-azaspiro[2.5]octan-6-yl)phenyl)-2-hydroxyethane-1-sulfonamide] | 0.08 µM | 0.002 µM
O=S(=O)(CCO)Nc1ccc(-n2cc(-c3ncnc(N4CCC(F)(F)CC4)n3)cn2)c(N2CCC3(CC2)CC3)c1 [Example I-130, N-(4-(4-(4-(4,4-Difluoropiperidin-1-yl)-1,3,5-triazin-2-yl)-1H-pyrazol-1-yl)-3-(6-azaspiro [2.5]octan-6-yl)phenyl)-2-hydroxyethanesulfonamide] | 0.142 µM | 0.009 µM
Cc1cc(-c2nnc(-c3ccc(NS(=O)(=O)CCO)cc3N3CCC4(CC3)CC4)o2)nc(N2CCC(C(F)(F)F)C2)n1 (stereo not shown) [Example I-98, N-(4-(5-(6-methyl-2-(3-(trifluoromethyl)pyrrolidin-1-yl)pyrimidin-4-yl)-1,3,4-oxadiazol-2-yl)-3-(6-azaspiro [2.5]octan-6-yl)phenyl)-2-hydroxyethane-sulfonamide] | – | 0.018 µM
Cc1cc(-c2nnc(-c3ccc(NS(=O)(=O)CCO)cc3N3CCC4(CC3)CC4)o2)nc(N2CCCC(C(F)(F)F)C2)c1 (stereo not shown) [Example I-103, N-(4-(5-(4-Methyl-6-(3-(trifluoromethyl)piperidin-1-yl)pyridin-2-yl)-1,3,4-oxadiazol-2-yl)-3-(6-azaspiro[2.5]octan-6-yl)phenyl)-2-hydroxyethane-1-sulfonamide] | – | 0.012 µM
Cc1cc(-c2cnn(-c3ccc(NS(=O)(=O)CCO)cc3N3CCC(C)CC3)c2)nc(N2CCC(F)(F)CC2)n1 [Example I-125, N-(4-(4-(2-(4,4-Difluoropiperidin-1-yl)-6-methylpyrimidin-4-yl)-1H-pyrazol-1-yl)-3-(4-methylpiperidin-1-yl)phenyl)-2-hydroxyethane-1-sulfonamide] | – | 0.005 µM
Cc1cc(-c2nnc(-c3ccc(NS(=O)(=O)CCO)cc3N3CCC4(CC3)CC4)o2)c(F)c(N2CCC(F)(F)CC2)n1 [Example I-53] | 0.214 µM | –
Cc1cc(-n2cc(-c3ccc(NS(=O)(=O)CCO)cc3N3CCC4(CC3)CC4)cn2)nc(N2CCC(F)(F)CC2)n1 [Example I-81, N-(4-(1-(2-(4,4-Difluoropiperidin-1-yl)-6-methylpyrimidin-4-yl)-1H-pyrazol-4-yl)-3-(6-azaspiro[2.5]octan-6-yl)phenyl)-2-hydroxyethane-1-sulfonamide] | 0.393 µM | –
